Test results reported in patent US20250283871A1, “COMPOSITIONS AND METHODS FOR MODULATING THE INTERACTION BETWEEN SS18-SSX FUSION ONCOPROTEIN AND NUCLEOSOMES” (Dana-Farber Cancer Institute, Inc., priority 2020, published 2025).

What was measured:
nucleosomes = experiment: Restriction enzyme accessibility assay (REAA) nucleosome remodeling assay; format: biochemical; settings: 37 degrees C, 0-40 min
Method: SMARCA4 (BRG1) levels of the ammonium sulfate nuclear extracts were normalized via BCA protein quantification and Silver Stain analyses for HA-SS18 and HA-SS18-SSX conditions. Protein was diluted for final reaction concentration of 150 μg/mL in REAA buffer (20 mM HEPES, pH 8.0, 50 mM KCl, 5 mM MgCl2) containing 0.1 mg/mL BSA, 1 mM DTT, 20 nM nucleosomes (EpiDyne Nucleosome Remodeling Assay Substrate ST601-GATC1, EpiCypher). The REAA mixture was incubated at 37° C. for 10 min, and reaction was initiated using 1-2 mM ATP (Ultrapure ATP, Promega) and 0.005 U/mL DpnJJ Restriction Enzyme (New England Biolabs). The REAA reaction mixture was quenched with 20-24 mM EDTA and placed on ice. Proteinase K (Ambion) was added at 100 mg/mL for 30-60 min, followed by either AMPure bead DNA purification and D1000 HS DNA ScreenTape Analysis (Agilent) or mixing with GelPilot® Loading Dye (QIAGEN) and loading onto 8% TBE gel (Novex 8% TBE Gels, Thermo Fisher). TBE gels were stained with either SYBR®-Safe (Invitrogen) or Syto®-60 Red Fluorescent Nucleic Acid Stain (Invitrogen), followed by imaging with UV light on an Alpha Innotech AlphaImager™ 2200 and/or with 652 nm light excitation on a Li-Cor Odyssey® CLx imaging system (LI-COR).

histone proteins = experiment: Purification of mSWI/SNF (BAF) complexes from NE and CHR fractions, colloidal blue staining; design: species or system human
Method: Stable HEK293T cell lines expressing by lentiviral infection HA-SS18 WT or HA-SS18-SSX1 were grown in 150 mm dishes. Complexes were purified using methods previously described with a few modifications (Mashtalir et al. (2014) Mol. Cell 54:392-406). Confluent plates were scraped to remove cells and cells were washed with PBS. Cell suspension was spun down by centrifugation at 3000 rpm for 5 minutes at 4° C. and pellets were resuspended in hypotonic buffer (10 mM Tris HCl pH 7.5, 10 mM KCl, 1.5 mM MgCL2, 1 mM DTT, 1 mM PMSF) and incubated on ice for 5 minutes. Following incubation, cell suspension was spun down by centrifugation at 5000 rpm for 5 minutes at 4° C., and pellets were resuspended in 5× volume of fresh hypotonic buffer (with protease inhibitor cocktail, Roche C756U27) and then cells were homogenized using a Dounce homogenizer (glass). Cell suspension was layered onto hypotonic buffer sucrose cushion made with 30% sucrose w/v, spun down by centrifugation at 5000 rpm for 1 hour at 4° C. followed by removal of the cytosol-containing layer. The nuclei containing pellets were resuspended in high salt buffer (50 mM Tris HCl pH 7.5, 300 mM KCl, 1 mM MgCL2, 1 mM EDTA, 1 mM, 1% NP40, 1 mM DTT, 1 mM PMSF and protease inhibitor cocktail) and then the homogenate rotated for 1 hour at 4° C. […]

[1] = system: BAF complex subunits and histone proteins; experiment: Mass spectrometry proteomics of purified HA-SS18 WT and HA-SS18-SSX1 complexes (Tables 5A-5E); design: species or system human; settings: MS of HA purifications
Method: Confluent plates were scraped to remove cells and cells were washed with PBS. Cell suspension was spun down by centrifugation at 3000 rpm for 5 minutes at 4° C. and pellets were resuspended in hypotonic buffer (10 mM Tris HCl pH 7.5, 10 mM KCl, 1.5 mM MgCL2, 1 mM DTT, 1 mM PMSF) and incubated on ice for 5 minutes. Following incubation, cell suspension was spun down by centrifugation at 5000 rpm for 5 minutes at 4° C., and pellets were resuspended in 5× volume of fresh hypotonic buffer (with protease inhibitor cocktail, Roche C756U27) and then cells were homogenized using a Dounce homogenizer (glass). Cell suspension was layered onto hypotonic buffer sucrose cushion made with 30% sucrose w/v, spun down by centrifugation at 5000 rpm for 1 hour at 4° C. followed by removal of the cytosol-containing layer. The nuclei containing pellets were resuspended in high salt buffer (50 mM Tris HCl pH 7.5, 300 mM KCl, 1 mM MgCL2, 1 mM EDTA, 1 mM, 1% NP40, 1 mM DTT, 1 mM PMSF and protease inhibitor cocktail) and then the homogenate rotated for 1 hour at 4° C. Homogenates were then spun down by centrifugation at 20,000 rpm for 1 hour at 4° C. in a SW32Ti rotor (Beckman Coulter). The soluble proteins, consisting of the nuclear extract (NE) fraction, was separated from the insoluble chromatin pellet, consisting of the chromatin (CHR) fraction. […]

[2] = system: recombinant mononucleosome; experiment: ATPase assay (ADP-Glo); format: biochemical; settings: 0-40 min
Method: ATPase consumption assays were performed using the ADP-Glo Kinase Assay kit (Promega). The same conditions as the REAA nucleosome remodeling assay described above were used. Following incubation with desired substrates for 40 min at 37° C., 1× volume of ADP-Glo Reagent was used to quench the reaction and incubated at RT for 40 min. 2× volume of the Kinase Detection Reagent was then added and incubated at RT for 1 h. Luminescence readout was recorded. Substrates used for this assay were purified recombinant mononucleosome (EpiDyne Nucleosome Remodeling Assay Substrate ST601-GATC1, EpiCypher, Cat #16-4101). Nuclear extract material was used at 150ug for each ARID1A-IP using ARID1A antibody (Cell Signaling, Cat #12354S).

[3] = system: H2A K119Ub-modified nucleosomes; experiment: Pull down of endogenous HA-SS18- or HA-SS18-SSX-bound BAF complexes with WT or H2A K119Ub-modified nucleosomes; format: binding; settings: endogenously purified complexes
Method: Difference is the score calculated between SYO1 (SS18-SSX+) cells and SW982 cells (negative for fusion, histologic mimic). mSWI/SNF, PRC1, PRC2 members are shown. […] H3 immunoblot is used for assessment of nucleosome binding to GST-SSX. […] SMARCA4 and H3 immunoblots are shown. FIG. 11G has two panels. […] Peptides were incubated −/+presence of USP2 treatment. Error bars=st.dev. […] H3 immunoblot is used for assessment of nucleosome binding to GST-SSX. […] Data for GST-SSX with WT nucleosomes and H2A K119Ub nucleosomes are shared between FIG. 11E.
SS cell lines containing the SS18-SSX fusion oncoprotein are highlighted in red. […] Difference is the score calculated between SYO1, Yamato-SS, SCS241 (SS18-SSX+) cells and SW982 cells (negative for fusion, histologic mimic). Blue indicates enriched for dependency. mSWI/SNF, PRC1, PRC2 members are shown. […] Synovial sarcoma cell lines are indicated in pink; all other cell lines are represented in gray. […] (Project DRIVE; available on the World Wide Web at oncologynibr.shinyapps.io/drive/). SS cell lines containing the SS18-SSX fusion oncoprotein are highlighted in red. […] H3 immunoblot is used for assessment of nucleosome binding to GST-SSX. […] SMARCA4 and H3 immunoblots are shown. […] Identified proteins labeled (Left). WB of the samples on the right indicating presence of histone H3 (Right).

[4] = system: mammalian mononucleosomes from HEK293T cells; experiment: Protein and peptide pull downs with mammalian mononucleosomes; format: binding, human
Method: (§1) The flow through was removed, the immobilized bait was incubated with 1-2 μg of purified mammalian mono-nucleosomes from HEK293T cells, recombinant mono-nucleosomes (EpiCypher, 16-0006), recombinant H2AK119Ub mono-nucleosomes (EpiCypher, 16-0020) or recombinant protein for 3 hours at 4° C., and the beads were washed 3× with EB150 buffer and then eluted in 2×LDS with 200 mM DTT with heating at 95° C. for 5 minutes. The pull downs were then visualized by immunoblot analysis or colloidal blue staining.
Mammalian mononucleosomes were purified from HEK293T cells similar to as previously described (Mashtalir et al. (2014) Mol. Cell 54:392-406). Cells were scraped from plates, washed with cold PBS, and centrifuged at 5,000 rpm for 5 min at 4° C. Pellets were resuspended in hypotonic buffer (EBO: 50 mM Tris HCl, pH 7.5, 1 mM EDTA, 1 mM MgCl2, 0.1% NP40 supplemented with 1 mM DTT, 1 mM PMSF, and protease inhibitor cocktail (Roche, C756U27) and incubated for 5 min on ice. The suspension was centrifuged at 5,000 rpm for 5 min at 4° C., and pellets were resuspended in 5 volumes of EB420 (EBO: 50 mM Tris HCl, pH 7.5, 420 mM NaCl, 1 mM MgCl2, 0.1% NP40 with supplemented with 1 mM DTT and 1 mM PMSF containing protease inhibitor cocktail (Roche, C756U27). Homogenate incubated on rotator for 1 hour at 4° C. The supernatant was then centrifuged at 20,000 rpm (30,000×g) for 1 hour at 4° C. using a SW32Ti rotor. Supernatant was then discarded and chromatin pellet was washed in MNAse buffer (20 mM Tris-HCl pH 7.5, 100 mM KCl, 2 mM MgCl2, 1 mM CaCl2, […] sucrose, 0.1% NP-40, and protease inhibitor cocktail) three times. Following MNase treatment (3 U/mL for 30 min at room temperature, Sigma-Aldrich), the reaction was quenched with 5 mM of EGTA and 5 mM of EDTA. The samples were then centrifuged at 20,000×g for 1 hour at 4° C. to obtain the soluble chromatin fraction. Soluble chromatin fraction was loaded onto 10-30% glycerol gradient (Mashtalir et al. (2014) Mol. Cell 54:392-406) and fractions containing mononucleosomes were isolated and concentrated using centrifugal filter (Amicon, EMD Millipore).

[5] = system: acidic patch mutant nucleosomes (D90N, E92K, and E113K); experiment: GST-SSX pull down with acidic patch mutant nucleosomes; format: binding; settings: H2A D90N, H3 immunoblot
Method: as §1

[6] = system: recombinant H2AK119Ub mono-nucleosomes; experiment: Pull downs with WT or H2A K119Ub nucleosomes; format: binding
Method: as §1

[7] = system: WT, H2AUb or H2BUb nucleosomes; experiment: AlphaLisa binding assay with biotinylated nucleosomes; settings: 10 nM biotinylated nucleosomes
[8] = system: unmodified or H2A K119Ub-modified nucleosomes; experiment: Fluorescence polarization assay; format: binding; settings: H2A K119Ub versus unmodified nucleosomes
mononucleosomes = mononucleosomes (Homo sapiens, UniProt O60814+P04908); experiment: Peptide competition experiments; format: binding; settings: SSX 34aa versus SMARCB1 aa351-385

## SS18-SSX-bound BAF complexes: BAF complexes purified via HA-tagged SS18-SSX expressed in HEK-293T cells
nucleosomes
  remodeling efficiency: slightly lower than that of WT SS18-bound complexes
Histone proteins
  core histone proteins captured: captured near-stoichiometric amounts of core histone proteins H2A, H2B, H3, and H4
[1]
  peptides corresponding to the H2A K119Ub mark captured: captured only in the purifications of SS18-SSX-bound complexes
[2]
  ATPase activity: slightly lower than that of WT SS18-bound complexes
[3]
  binding of H2A K119Ub-modified versus unmodified nucleosomes by BAF complexes: enriched for binding of recombinant H2A K119Ub-modified nucleosomes over unmodified nucleosomes

## GST-SSX 78aa: GST-tagged recombinant C-terminal 78 residues of SSX1 (aa 111-188)
[4]; mammalian mononucleosomes
  nucleosome binding in pull-down: sufficient for its nucleosomal interactions
[4]; pull-down
  binding to mammalian versus recombinant, unmodified nucleosomes: stronger than binding to recombinant, unmodified nucleosomes
[5]
  binding to acidic patch-mutant nucleosomes: near complete loss of SSX binding
[6]; H3 immunoblot
  affinity to H2A K119Ub-decorated nucleosomes, pulldown: significantly higher affinity to H2A K119Ub-decorated nucleosomes relative to unmodified nucleosomes or H2B K120Ub nucleosomes
[6]; screen of modified mononucleosomes
  binding across differentially-marked recombinant and mammalian nucleosomes: preferentially bound to H2A K119Ub and mammalian nucleosomes over unmodified nucleosomes or nucleosomes with other histone marks
[7]
  affinity to H2A K119Ub-decorated nucleosomes, AlphaLisa: significantly higher affinity to H2A K119Ub-decorated nucleosomes relative to unmodified nucleosomes or H2B K120Ub nucleosomes

## fluoro-labeled SSX: fluorescently-labeled SSX1 (78aa), in place of GST tag
[8]
  binding affinity by fluorescence polarization: higher binding affinity to H2A K119Ub-decorated nucleosomes compared to unmodified nucleosomes

## SMARCB1 C-term alpha helix: peptide of the SMARCB1 C-terminal alpha helical domain, aa 351-385
mononucleosomes
  reciprocal competition for nucleosome acidic patch binding: unable to outcompete SSX from binding the nucleosomes
